Data as given in patent US3970648A, “2-[2-(5-Nitro-2-furyl)vinyl]-4-(anilino)quinazolines” (Diamond Shamrock Corporation, priority 1974, dated 1976).

Assays:
Assay type in all cases: cell-based
Salmonella gallinarum = assay: Bactericide test, Salmonella gallinarum (agar streak plate); conditions: Salmonella enterica, GALLINARUM
Source text: (§1) Test formulations were examined for bactericidal and/or bacteriostatic activity against the test organisms shown in Tables A and B. These organisms were chosen as being representative of commercially important pathogens affecting animal agriculture. The antibiotic chlortetracycline was chosen as a positive control, since it has a broad spectrum of activity against a large number of organisms, and its activity can be used for comparative purposes.
(§2) Basic test formulations of the product of Examples I, II, III, and of chlortetracycline were prepared by dissolving 16 mg (0.016 g) in 2.0 ml of stock emulsifier solution (0.25% Triton X-155 in acetone by volume) and making each solution up to 50 ml with deionized water. The concentration of the test compound in the basic formulation was 320 ppm. Lower concentrations of the test compound were obtained by diluting the basic formulation with a 4% solution of the stock emulsifier in deionized water so that each dilution in the series differed only in test compound content.
(§3) Nutrient-tryptic soy agar (NTA) consisting of 2.0% Difco Bactoagar 0.8% nutrient broth (Difco), and 0.5% tryptic soy broth (Difco) was prepared and sterilized by autoclaving. A 2 ml aliquot of each test formulation was added to 8 ml of molten NTA. This mixture was then plated in a sterile polystyrene petri dish (100 × 15 mm). After the agar was set, suspensions of each of the test organisms were simultaneously streaked onto the surface of the agar. The inoculated plates were incubated for 48 hr at 28°C. The inhibition of growth of each organism was rated by visual comparison with the organism developing on non-treated agar. Growth inhibition reported as per cent control was rated in three categories as follows: 0% control, growth equivalent to that on non-treated agar; 50% control, sparse development and separated colonies; 100% control, no visible growth or development of colonies.
(§4) Test formulations of the product of Example IV were examined for bactericidal and/or bacteriostatic activity against the test organisms shown in Table B using the Bactericide Test described in Example V. The inhibition of organism growth with each diluted test formulation was rated visually by comparison with the organism developing on a non-treated control agar plate. Growth inhibition reported as per cent control was rated in three categories as follows: 0% control, growth equivalent to that on non-treated agar; 50% control is sparse development and separated colonies; and 100% control, development of individual colonies was not apparent.

Salmonella cholerasuis = assay: Bactericide test, Salmonella cholerasuis (agar streak plate); conditions: Salmonella
Source text: as §1, §2, §3, §4

Salmonella typhimurium = assay: Bactericide test, Salmonella typhimurium (agar streak plate); conditions: Salmonella enterica, TYPHIMURIUM
Source text: as §1, §2, §3

Vibrio coli = assay: Bactericide test, Vibrio coli (agar streak plate)
Source text: as §1, §2, §3

Streptococcus faecalis = assay: Bactericide test, Streptococcus faecalis (agar streak plate)
Source text: as §1, §2, §3, §4

Streptococcus group E = assay: Bactericide test, Streptococcus group E (agar streak plate)
Source text: as §1, §2, §3

[1] = 100% inhibition at lower concentrations

Compound: O=[N+]([O-])c1ccc(C=Cc2nc(Nc3cccc(O)c3)c3ccccc3n2)o1 [Example II, 2-[2-(5-nitro-2-furyl)vinyl]-4-(m-hydroxyanilino)quinazoline]
- inhibition at 0.125 ppm (Salmonella gallinarum; 0.125 ppm): 0%
- inhibition at 0.25 ppm (Salmonella gallinarum; 0.25 ppm): 0%
- inhibition at 0.5 ppm (Salmonella gallinarum; 0.5 ppm): 0%
- inhibition at 1 ppm (Salmonella gallinarum; 1 ppm): 0%
- inhibition at 2 ppm (Salmonella gallinarum; 2 ppm): 0%
- inhibition at 4 ppm (Salmonella gallinarum; 4 ppm): 0%
- inhibition at 8 ppm (Salmonella gallinarum; 8 ppm): 0%
- inhibition at 16 ppm (Salmonella gallinarum; 16 ppm): 0%
- inhibition at 32 ppm (Salmonella gallinarum; 32 ppm): 0%
- inhibition at 64 ppm (Salmonella gallinarum; 64 ppm): 0%
- inhibition at 0.125 ppm (Salmonella cholerasuis; 0.125 ppm): 0%
- inhibition at 0.25 ppm (Salmonella cholerasuis; 0.25 ppm): 0%
- inhibition at 0.5 ppm (Salmonella cholerasuis; 0.5 ppm): 0%
- inhibition at 1 ppm (Salmonella cholerasuis; 1 ppm, read-out: % Inhibition): 0%
- inhibition at 2 ppm (Salmonella cholerasuis; 2 ppm): 0%
- inhibition at 4 ppm (Salmonella cholerasuis; 4 ppm, read-out: % Inhibition): 0%
- inhibition at 8 ppm (Salmonella cholerasuis; 8 ppm): 0%
- inhibition at 16 ppm (Salmonella cholerasuis; 16 ppm, read-out: % Inhibition): 0%
- inhibition at 32 ppm (Salmonella cholerasuis; 32 ppm): 0%
- inhibition at 64 ppm (Salmonella cholerasuis; 64 ppm, read-out: % Inhibition): 0%
- inhibition at 0.125 ppm (Salmonella typhimurium; 0.125 ppm): 0%
- inhibition at 0.25 ppm (Salmonella typhimurium; 0.25 ppm): 0%
- inhibition at 0.5 ppm (Salmonella typhimurium; 0.5 ppm): 0%
- inhibition at 1 ppm (Salmonella typhimurium; 1 ppm, read-out: % Inhibition): 0%
- inhibition at 2 ppm (Salmonella typhimurium; 2 ppm): 0%
- inhibition at 4 ppm (Salmonella typhimurium; 4 ppm, read-out: % Inhibition): 0%
- inhibition at 8 ppm (Salmonella typhimurium; 8 ppm): 0%
- inhibition at 16 ppm (Salmonella typhimurium; 16 ppm, read-out: % Inhibition): 0%
- inhibition at 32 ppm (Salmonella typhimurium; 32 ppm): 0%
- inhibition at 64 ppm (Salmonella typhimurium; 64 ppm, read-out: % Inhibition): 0%
- effectiveness compared with chlortetracycline (in words) (Vibrio coli; [1]): considerably more effective
- inhibition at 0.125 ppm (Vibrio coli; Campylobacter coli, 0.125 ppm): 100%
- inhibition at 0.25 ppm (Vibrio coli; Campylobacter coli, 0.25 ppm): 100%
- inhibition at 0.5 ppm (Vibrio coli; Campylobacter coli, 0.5 ppm): 100%
- inhibition at 1 ppm (Vibrio coli; Campylobacter coli, 1 ppm): 100%
- inhibition at 2 ppm (Vibrio coli; Campylobacter coli, 2 ppm): 100%
- inhibition at 4 ppm (Vibrio coli; Campylobacter coli, 4 ppm): 100%
- inhibition at 8 ppm (Vibrio coli; Campylobacter coli, 8 ppm): 100%
- inhibition at 16 ppm (Vibrio coli; Campylobacter coli, 16 ppm): 100%
- inhibition at 32 ppm (Vibrio coli; Campylobacter coli, 32 ppm): 100%
- inhibition at 64 ppm (Vibrio coli; Campylobacter coli, 64 ppm): 100%
- effectiveness compared with chlortetracycline (in words) (Streptococcus faecalis; [1]): considerably more effective
- inhibition at 0.125 ppm (Streptococcus faecalis; Enterococcus faecalis, 0.125 ppm): 0%
- inhibition at 0.25 ppm (Streptococcus faecalis; Enterococcus faecalis, 0.25 ppm): 50%
- inhibition at 0.5 ppm (Streptococcus faecalis; Enterococcus faecalis, 0.5 ppm): 100%
- inhibition at 1 ppm (Streptococcus faecalis; Enterococcus faecalis, 1 ppm, read-out: % Inhibition): 100%
- inhibition at 2 ppm (Streptococcus faecalis; Enterococcus faecalis, 2 ppm): 100%
- inhibition at 4 ppm (Streptococcus faecalis; Enterococcus faecalis, 4 ppm, read-out: % Inhibition): 100%
- inhibition at 8 ppm (Streptococcus faecalis; Enterococcus faecalis, 8 ppm): 100%
- inhibition at 16 ppm (Streptococcus faecalis; Enterococcus faecalis, 16 ppm, read-out: % Inhibition): 100%
- inhibition at 32 ppm (Streptococcus faecalis; Enterococcus faecalis, 32 ppm): 100%
- inhibition at 64 ppm (Streptococcus faecalis; Enterococcus faecalis, 64 ppm, read-out: % Inhibition): 100%
- inhibition at 0.125 ppm (Streptococcus group E; 0.125 ppm): 100%
- inhibition at 0.25 ppm (Streptococcus group E; 0.25 ppm): 100%
- inhibition at 0.5 ppm (Streptococcus group E; 0.5 ppm): 100%
- inhibition at 1 ppm (Streptococcus group E; 1 ppm, read-out: % Inhibition): 100%
- inhibition at 2 ppm (Streptococcus group E; 2 ppm): 100%
- inhibition at 4 ppm (Streptococcus group E; 4 ppm, read-out: % Inhibition): 100%
